According to patent EP4603105A1, “PHARMACEUTICAL COMPOSITION CONTAINING CYCLIC COMPOUND HAVING SELECTIVE KRAS INHIBITORY EFFECT AGAINST HRAS AND NRAS” (CHUGAI SEIYAKU KABUSHIKI KAISHA, priority 2022, dated 2024):
*1 amine or outer side, *2 acyl side, *3 side chain or, on linkers, in order; H or OH if unused. Where a SMILES comes first, the peptide text is derived from it. Bridges are numbered along the chain shown (N, C = ends). [ ]: non-standard residue; d: D form. The star is where a group is joined. hPhe(3-Cl-4-CF3) = N[C@@H](CCc1ccc(C(F)(F)F)c(Cl)c1)C(=O)O; X18 = CCCCN([C@@H](Cc1ccc(C(F)(F)F)cc1)C(=O)[*:2])[*:1]; NMeGly(cPent) = CN[C@H](C(=O)O)C1CCCC1; NMeD = CN[C@@H](CC(=O)O)C(=O)O; NMeL = CN[C@@H](CC(C)C)C(=O)O; Morpholide = C1CN(*)CCO1; Ac5c = NC1(C(=O)O)CCCC1; Sar = CNCC(=O)O

Key:
[1] = target: HRAS wild-type protein (Homo sapiens, UniProt P01112); experiment: Binding to HRAS by surface plasmon resonance (SPR), KD and KD ratio to KRAS
In short: (§1)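 Captured GDP-RAS (~100–300 RU) was exposed to increasing compound concentrations, 75 s per step, in running buffer with 10 µM GDP, 10 mM MgCl2 and 4% DMSO at pH 7.4.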

[2] = test system: human lung cancer strain NCI-H441; format: cell-based
In short: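 Step one: dispense the test compound in serial DMSO dilutions. Step three: add the reagent and measure […].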

[3] = target: GDP-bound NRAS wild-type protein (Homo sapiens, UniProt P01111); experiment: Binding to NRAS by surface plasmon resonance (SPR), KD and KD ratio to KRAS
In short: as §1

[4] = ratio of KD value for HRAS wild-type protein to KD value for KRAS (SPR)
[5] = ratio of KD value for GDP-bound NRAS wild-type protein to KD value for KRAS (SPR)
[6] = ratio of KD for HRAS wild-type protein to KD for KRAS
[7] = ratio of KD for GDP-bound NRAS wild-type protein to KD for KRAS
[8] = ratio of the KD value with respect to HRAS wild-type protein to the KD value with respect to KRAS
[9] = ratio of the KD value with respect to GDP-bound NRAS wild-type protein to the KD value with respect to KRAS

Sequence of HRAS wild-type protein (P01112 whole entry): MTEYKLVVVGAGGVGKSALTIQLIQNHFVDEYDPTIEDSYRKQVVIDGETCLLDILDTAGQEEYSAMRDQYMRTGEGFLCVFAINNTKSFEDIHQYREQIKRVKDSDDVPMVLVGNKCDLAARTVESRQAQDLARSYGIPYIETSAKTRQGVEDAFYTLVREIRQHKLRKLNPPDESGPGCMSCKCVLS
Sequence of GDP-bound NRAS wild-type protein (P01111 whole entry): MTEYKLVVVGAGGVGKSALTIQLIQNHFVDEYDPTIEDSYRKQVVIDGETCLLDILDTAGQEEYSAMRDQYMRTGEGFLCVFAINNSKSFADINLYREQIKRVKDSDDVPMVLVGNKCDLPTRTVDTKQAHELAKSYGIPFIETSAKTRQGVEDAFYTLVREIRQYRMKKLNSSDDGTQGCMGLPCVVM

CCO[C@@H]1C[C@H]2C(=O)NC3(CCC3)C(=O)N(C)[C@@H](C3CCCC3)C(=O)N(C)[C@H](C(=O)N3CCOCC3)CC(=O)N(C)[C@@H](CC3CC3)C(=O)N[C@@H]([C@@H](C)CC)C(=O)N(C)CC(=O)N(C)[C@H]3C/C=C\CCN(C3=O)[C@@H](Cc3ccc(F)cc3)C(=O)N(C)CC(=O)N[C@@H](CCc3cc(F)c(C(F)(F)F)c(F)c3)C(=O)N2C1 [PP1496]
HRAS /KRAS [1, 4]: B (a compound having 3 or more and less than 10 is denoted as B) | IC50 [2]: 36.7 nM | NRAS /KRAS [3, 5]: A (a compound having 10 or more and less than 20 is denoted as A)

CCO[C@@H]1C[C@H]2C(=O)NC3(CC(C)(C)C3)C(=O)N(C)[C@@H](C3CCCC3)C(=O)N(C)[C@H](C(=O)N(C)CC)CC(=O)N(C)[C@@H](CC(C)C)C(=O)N[C@@H]([C@@H](C)CC)C(=O)N(C)CC(=O)N(C)[C@H]3C/C=C\CCN(C3=O)[C@@H](Cc3ccc(C(F)F)cc3)C(=O)N(C)CC(=O)N[C@@H](CCc3ccc(C(F)(F)F)c(OC)c3)C(=O)N2C1 [PP2828]
HRAS /KRAS [1, 6]: A (a compound having 10 or more and less than 20 is denoted as A) | IC50 [2]: 5 nM | NRAS /KRAS [3, 7]: A (a compound having 10 or more and less than 20 is denoted as A)

CCO[C@@H]1C[C@H]2C(=O)NC3(CC(C)(C)C3)C(=O)N(C)[C@@H](C3CCCC3)C(=O)N(C)[C@H](C(=O)N(C)C)CC(=O)N(C)[C@H]3CCCCCc4ccc(cc4)C[C@@H](C(=O)N(C)CC(=O)N[C@@H](CCc4ccc(C(F)(F)F)c(OC)c4)C(=O)N2C1)N1CC/C=C\C[C@@H](C1=O)N(C)C(=O)CN(C1CC1)C(=O)[C@H]([C@@H](C)CC)NC3=O [PP3075]
HRAS /KRAS [1, 6]: A (a compound having 10 or more and less than 20 is denoted as A) | IC50 [2]: 1.1 nM | NRAS /KRAS [3, 7]: A (a compound having 10 or more and less than 20 is denoted as A)

CCCN(C)C(=O)[C@@H]1CC(=O)N(C)[C@@H](CCOC)C(=O)N[C@@H]([C@@H](C)CC)C(=O)N(C)CC(=O)N(C)[C@H]2C/C=C\CCN(C2=O)[C@@H](Cc2ccc(C(F)(F)F)cc2)C(=O)N(C)CC(=O)N[C@@H](CCc2ccc(C(F)(F)F)c(OC)c2)C(=O)N2C[C@H](OCC)C[C@H]2C(=O)NC2(CCC2)C(=O)N(C)[C@@H](C2CCCC2)C(=O)N1C [PP2018]
HRAS /KRAS [1, 8]: B (a compound having 3 or more and less than 10 is denoted as B) | IC50 [2]: 5.3 nM | NRAS /KRAS [3, 9]: A (a compound having 10 or more and less than 20 is denoted as A)

CCO[C@@H]1C[C@H]2C(=O)NC3(CC(C)(C)C3)C(=O)N(C)[C@@H](C3CCCC3)C(=O)N(C)[C@H](C(=O)N(C)CC)CC(=O)N(C)[C@@H](COC)C(=O)N[C@@H]([C@@H](C)CC)C(=O)N(C)CC(=O)N(C)[C@H]3C/C=C\CCN(C3=O)[C@@H](Cc3ccc(C(F)(F)F)cc3)C(=O)N(C)CC(=O)N[C@@H](CCc3ccc(C(F)(F)F)c(Cl)c3)C(=O)N2C1 [PP2836]
HRAS /KRAS [1, 6]: A (a compound having 10 or more and less than 20 is denoted as A) | IC50 [2]: 5.1 nM | NRAS /KRAS [3, 7]: A (a compound having 10 or more and less than 20 is denoted as A)

CCO[C@@H]1C[C@H]2C(=O)NC3(CCC3)C(=O)N(C)[C@@H](C(CC)CC)C(=O)N(C)C(C(C)C)CC(=O)N(C)[C@@H](CC3CC3)C(=O)N[C@@H]([C@@H](C)CC)C(=O)N(C)CC(=O)N(C)[C@H]3C/C=C\CCN(C3=O)[C@@H](Cc3ccc(C(F)(F)F)cc3)C(=O)N(C)CC(=O)N[C@@H](CCc3cc(F)c(C(F)(F)F)c(F)c3)C(=O)N2C1 (stereo partly drawn) [PP1595]
HRAS /KRAS [1, 4]: A (a compound having 10 or more and less than 20 is denoted as A) | IC50 [2]: 64.6 nM | NRAS /KRAS [3, 5]: A (a compound having 10 or more and less than 20 is denoted as A)

CCCO[C@@H]1C[C@H]2C(=O)NC3(CC(C)(C)C3)C(=O)N(C)[C@@H](C3CCCC3)C(=O)N(C)[C@H](C(=O)N(C)CC)CC(=O)N(C)[C@H]3CCCc4ccc(cc4)C[C@@H](C(=O)N(C)CC(=O)N[C@@H](CCc4ccc(Cl)c(Cl)c4)C(=O)N2C1)N1CC/C=C\C[C@@H](C1=O)N(C)C(=O)CN(C)C(=O)[C@H]([C@@H](C)CC)NC3=O [PP3089]
HRAS /KRAS [1, 6]: B (a compound having 3 or more and less than 10 is denoted as B) | IC50 [2]: 27 nM | NRAS /KRAS [3, 7]: B (a compound having 3 or more and less than 10 is denoted as B)

CCCN(C)C(=O)[C@@H]1CC(=O)N(C)[C@@H](C2CCC2)C(=O)N[C@@H]([C@@H](C)CC)C(=O)N(C)CC(=O)N(C)[C@H]2C/C=C\CCN(C2=O)[C@@H](Cc2ccc(C(F)(F)F)cc2)C(=O)N(C)CC(=O)N[C@@H](CCc2ccc(C(F)(F)F)c(OC)c2)C(=O)N2C[C@@H](C)C[C@H]2C(=O)NC2(CCC2)C(=O)N(C)[C@@H](C2CCCC2)C(=O)N1C [PP2072]
HRAS /KRAS [1, 8]: A (a compound having 10 or more and less than 20 is denoted as A) | IC50 [2]: 8.5 nM | NRAS /KRAS [3, 9]: A (a compound having 10 or more and less than 20 is denoted as A)

C=CCN1CC(=O)N(C)[C@H]2C/C=C\CCN(C2=O)[C@@H](Cc2ccc(C)cc2)C(=O)N(C)CC(=O)N[C@@H](CCc2ccc(C(F)(F)F)c(OC)c2)C(=O)N2C[C@H](OCC)C[C@H]2C(=O)NC2(CC(C)(C)C2)C(=O)N(C)[C@@H](C2CCCC2)C(=O)N(C)[C@H](C(=O)N(C)C)CC(=O)N(C)[C@@H](CCC)C(=O)N[C@@H]([C@@H](C)CC)C1=O [PP2098]
HRAS /KRAS [1, 8]: A (a compound having 10 or more and less than 20 is denoted as A) | IC50 [2]: 8.4 nM | NRAS /KRAS [3, 9]: A (a compound having 10 or more and less than 20 is denoted as A)

CCO[C@@H]1C[C@H]2C(=O)NC3(CCC3)C(=O)N(C)[C@@H](C3CCCC3)C(=O)N(C)[C@H](C(=O)N(C)C)CC(=O)N(C)[C@@H](CC)C(=O)N[C@@H]([C@@H](C)CC)C(=O)N(C)CC(=O)N(C)[C@H]3CCCCN(C3=O)[C@@H](Cc3ccc(C(F)(F)F)cc3)C(=O)N(C)CC(=O)N[C@@H](CCc3c(F)c(F)c(C(F)(F)F)c(F)c3F)C(=O)N2C1 [PP0886]
HRAS /KRAS [1, 6]: B (a compound having 3 or more and less than 10 is denoted as B) | IC50 [2]: 14.3 nM | NRAS /KRAS [3, 7]: C (A compound having a KD ratio of 0.1 or more and less than 3 is denoted as C)

CCCCN1C(=O)CN(C)C(=O)CN(C)C(=O)[C@H]([C@@H](C)CC)NC(=O)[C@H](CC(C)C)N(C)C(=O)C[C@@H](C(=O)N2CCOCC2)N(C)C(=O)[C@H](C2CCCC2)N(C)C(=O)C2(CCCC2)NC(=O)[C@@H]2CCCN2C(=O)[C@H](CCc2ccc(C(F)(F)F)c(Cl)c2)NC(=O)CN(C)C(=O)[C@@H]1Cc1ccc(C(F)(F)F)cc1 [PP0120] ([NMeL]I[Sar][Sar][X18][Sar][hPhe(3-Cl-4-CF3)]P[Ac5c][NMeGly(cPent)][NMeD]-Morpholide; lactam N-11)
HRAS /KRAS [1, 6]: C (A compound having a KD ratio of 0.1 or more and less than 3 is denoted as C) | IC50 [2]: 5.6 nM | NRAS /KRAS [3, 7]: B (a compound having 3 or more and less than 10 is denoted as B)

CCO[C@@H]1C[C@H]2C(=O)NC3(CC(C)(C)C3)C(=O)N(C)[C@@H](C(CC)CC)C(=O)N(C)[C@H](C(=O)N(C)C)CC(=O)N(C)[C@@H](C(C)C)C(=O)N[C@@H]([C@@H](C)CC)C(=O)N(C)CC(=O)N(C)[C@H]3C/C=C\CCN(C3=O)[C@@H](Cc3ccc(C)cc3)C(=O)N(C)CC(=O)N[C@@H](CCc3ccc(Cl)c(Cl)c3)C(=O)N2C1 [PP2122]
HRAS /KRAS [1, 8]: A (a compound having 10 or more and less than 20 is denoted as A) | IC50 [2]: 107 nM | NRAS /KRAS [3, 9]: AA (a compound having 20 or more is denoted as AA)

CCC[C@H]1C(=O)N[C@@H]([C@@H](C)CC)C(=O)N(C)CC(=O)N(C)[C@H]2C/C=C\CCN(C2=O)[C@@H](Cc2ccc(C(F)(F)F)cc2)C(=O)N(C)CC(=O)N[C@@H](CCc2ccc(CC)c(Cl)c2)C(=O)N2C[C@H](OCC)C[C@H]2C(=O)NC2(CC(C)(C)C2)C(=O)N(C)[C@@H](C2CCCC2)C(=O)N(C)[C@H](C(=O)N(C)C)CC(=O)N1C [PP2848]
HRAS /KRAS [1, 6]: A (a compound having 10 or more and less than 20 is denoted as A) | IC50 [2]: 28.9 nM | NRAS /KRAS [3, 7]: A (a compound having 10 or more and less than 20 is denoted as A)

CCO[C@@H]1C[C@H]2C(=O)NC3(CCC3)C(=O)N(C)[C@@H](C3CCCC3)C(=O)N(C)[C@H](C(=O)N(C)C)CC(=O)N(C)[C@@H](CC)C(=O)N[C@@H]([C@@H](C)CC)C(=O)N(C)CC(=O)N(C)[C@H]3CCCCCN(C3=O)[C@@H](Cc3ccc(F)c(OC)c3)C(=O)N(C)CC(=O)N[C@@H](CCc3cc(F)c(C(F)(F)F)c(F)c3)C(=O)N2C1 [PP0915]
HRAS /KRAS [1, 6]: B (a compound having 3 or more and less than 10 is denoted as B) | IC50 [2]: 37.6 nM | NRAS /KRAS [3, 7]: B (a compound having 3 or more and less than 10 is denoted as B)

CCO[C@@H]1C[C@H]2C(=O)NC3(CCC3)C(=O)N(C)[C@@H](C(CC)CC)C(=O)N(C)[C@H](CC)CC(=O)N(C)[C@@H](CC3CC3)C(=O)N[C@@H]([C@@H](C)CC)C(=O)N(C)CC(=O)N(C)[C@H]3C/C=C\CCN(C3=O)[C@@H](Cc3ccc(C(F)(F)F)cc3)C(=O)N(C)CC(=O)N[C@@H](CCc3cc(F)c(C(F)(F)F)c(F)c3)C(=O)N2C1 [PP1630]
HRAS /KRAS [1, 4]: A (a compound having 10 or more and less than 20 is denoted as A) | IC50 [2]: 144 nM | NRAS /KRAS [3, 5]: A (a compound having 10 or more and less than 20 is denoted as A)

CC[C@H](C)[C@@H]1NC(=O)[C@H](CC(C)C)N(C)C(=O)C[C@@H](C(=O)N2CCCC2)N(C)C(=O)[C@H](C2CCCC2)N(C)C(=O)C2(CCCC2)NC(=O)[C@@H]2CCCN2C(=O)[C@H](CCc2cc(F)c(C(F)(F)F)c(F)c2)NC(=O)CN(C)C(=O)[C@H](Cc2ccc(C(F)(F)F)cc2)N2CCCC[C@@H](C2=O)N(C)C(=O)CN(C)C1=O [PP0571]
HRAS /KRAS [1, 8]: B (a compound having 3 or more and less than 10 is denoted as B) | IC50 [2]: 5.4 nM | NRAS /KRAS [3, 9]: B (a compound having 3 or more and less than 10 is denoted as B)
